Tested on: Zika virus strain MR766
Assay type: cell-based
Conditions: for effect on replication of Zika virus (percent infected cells, FIG. 1): Vero cells infected 48 h with ZIKV MR766, MOI 0.3-0.5, compound added at time of infection, DMSO control
Protocol: FIG. 1 is a bar graph showing the results of experiments wherein Vero cells were infected for 48 h with Zika virus MR766 and stained for DNA and double stranded viral RNA. The indicated compounds at the indicated concentrations were added at the time of infection. Mean percent infected cells of n=3 experiments are shown +/−SD.
FIG. 2 is a set of images of Vero cells infected for 48 h with Zika virus MR766 and stained for DNA (blue) and double stranded viral RNA (green). Either Lanatoside 6 nM or DMSO (v/v) was added at the time of infection. Mean percent infected cells of n=3 experiments are shown +/−SD.
The effects of a number of small molecules previously reported to be effective in inhibiting replication of related viruses were evaluated on replication of the Zika virus using an immunofluorescence readout for viral protein expression. Molecules tested included Ivermectin 18898-1G; Mycophenolic acid M3536-50MG; Brequinar SML0113-5MG; Sodium Oxamate O2751-5G; Chloroquine C6628-25G; Hydroxychloroquine H0915-5MG; and Lanatoside C L2261-100MG.
Cells: Vero cells (ATCC, CCL-81) were cultured in complete Dulbecco's Modified Eagle Media (Sigma) with 10% FBS (Invitrogen) and 2 mM L-glutamine (Invitrogen).
Viruses: Zika virus strain MR766 was kindly provided by Dr. Robert Tesh at the World Reference Center for Emerging Viruses and Arboviruses at the University of Texas Medical Branch in Galveston Tex. MR766 was obtained originally from a Rhesus macaque in Uganda in 1947. Viruses were propagated in Vero cells (ATCC) (Dick et al., 1952) and the titer determined by standard plaque assays and immunofluorescence imaging assays for E protein expression.
Infection assays: Vero cells were plated the night before in a 384-well plate format. The following day the cells were infected with ZIKV MR766 at an MOI of 0.3-0.5 in the presence of the indicated compounds or the DMSO control (v/v). 48 hr post-infection the cells are fixed with formalin, permeabilized with 0.1% Triton-X100 and immunostained using the 4G2 monoclonal antibody against the E protein. The cells were then incubated with an Alexa Fluor 488 goat anti-mouse secondary and stained for DNA with Hoechst 33342. The cells were imaged on an automated Image Express Micro (IXM) microscope at 4× magnification. Images were analyzed using the MetaXpress software program to determine the total cells per well, and the percentage of infected cells in each well.

Row | Compound | effect on replication of Zika virus (percent infected cells, FIG. 1) | stopping replication of the virus (FIG. 2) (Vero cells infected 48 h with ZIKV MR766, Lanatoside 6 nM vs DMSO added at time of infection)
1 | 22,23-dihydroavermectin B1a+22,23-dihydroavermectin B1b [ivermectin] | significant effect | –
2 | CC(=O)O[C@H]1C[C@H](O[C@H]2[C@@H](O)C[C@H](O[C@H]3[C@@H](O)C[C@H](O[C@H]4CC[C@@]5(C)[C@H](CC[C@@H]6[C@@H]5C[C@@H](O)[C@]5(C)[C@@H](C7=CC(=O)OC7)CC[C@]65O)C4)O[C@@H]3C)O[C@@H]2C)O[C@H](C)[C@H]1O[C@@H]1O[C@H](CO)[C@@H](O)[C@H](O)[C@H]1O [Lanatoside C, 3β-[4-O-β-D-Glycopyranosyl-4-O-(3-O-acetyl-β-D-digitoxopyranosyl)-4-O-β-D-digitoxopyranosyl-β-D-digitoxopyranosyl]-12β,14-dihydroxy-5β,14β-card-20(22)-enolid] | significant effect | effective at stopping replication of the virus
3 | NC(=O)c1ncn([C@@H]2O[C@H](CO)[C@@H](O)[C@H]2O)n1 [ribavirin, 1-[(2R,3R,4S,5R)-3,4-dihydroxy-5-(hydroxymethyl)oxolan-2-yl]-1H-1,2,4-triazole-3-carboxamide] | significant effect | –
